In this experiment the target is PI3K delta (Homo sapiens, UniProt O00329). Nature of the experiment: Luciferase-coupled chemiluminescence kinase assay (ATP consumption, KinaseGlo). It counts as biochemical. An outline of the steps:
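Compound, kinase and ATP (≤ KM) reacted 2 h at ambient temperature, then remaining ATP quantified with luciferase-luciferin (KinaseGlo) luminescence as percent consumed.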

Sequence of PI3K delta (O00329 whole entry): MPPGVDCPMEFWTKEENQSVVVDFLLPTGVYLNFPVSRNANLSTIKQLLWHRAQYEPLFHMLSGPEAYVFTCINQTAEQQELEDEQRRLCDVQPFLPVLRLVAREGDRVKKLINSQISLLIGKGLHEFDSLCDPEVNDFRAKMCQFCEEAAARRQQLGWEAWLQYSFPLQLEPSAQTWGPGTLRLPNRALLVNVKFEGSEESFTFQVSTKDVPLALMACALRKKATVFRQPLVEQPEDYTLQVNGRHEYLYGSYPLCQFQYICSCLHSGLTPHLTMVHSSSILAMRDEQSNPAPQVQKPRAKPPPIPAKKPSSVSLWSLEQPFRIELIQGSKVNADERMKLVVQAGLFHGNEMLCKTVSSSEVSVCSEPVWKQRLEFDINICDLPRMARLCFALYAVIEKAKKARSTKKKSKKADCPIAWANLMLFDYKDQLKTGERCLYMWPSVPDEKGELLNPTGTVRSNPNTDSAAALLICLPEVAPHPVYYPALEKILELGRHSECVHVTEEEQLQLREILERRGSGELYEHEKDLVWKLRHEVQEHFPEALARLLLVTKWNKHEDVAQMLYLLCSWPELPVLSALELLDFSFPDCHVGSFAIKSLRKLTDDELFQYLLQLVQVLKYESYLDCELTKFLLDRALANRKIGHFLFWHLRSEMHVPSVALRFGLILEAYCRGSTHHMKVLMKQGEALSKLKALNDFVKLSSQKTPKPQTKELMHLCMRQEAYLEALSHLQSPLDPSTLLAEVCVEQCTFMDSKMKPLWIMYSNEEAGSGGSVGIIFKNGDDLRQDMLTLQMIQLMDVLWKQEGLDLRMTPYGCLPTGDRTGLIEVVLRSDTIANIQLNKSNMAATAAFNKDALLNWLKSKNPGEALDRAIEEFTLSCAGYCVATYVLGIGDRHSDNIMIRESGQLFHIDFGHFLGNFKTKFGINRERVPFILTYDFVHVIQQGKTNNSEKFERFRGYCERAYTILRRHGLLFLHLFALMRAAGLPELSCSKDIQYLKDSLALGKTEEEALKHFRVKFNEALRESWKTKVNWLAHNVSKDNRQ
Sequence of PI3K delta (P27986 whole entry partner): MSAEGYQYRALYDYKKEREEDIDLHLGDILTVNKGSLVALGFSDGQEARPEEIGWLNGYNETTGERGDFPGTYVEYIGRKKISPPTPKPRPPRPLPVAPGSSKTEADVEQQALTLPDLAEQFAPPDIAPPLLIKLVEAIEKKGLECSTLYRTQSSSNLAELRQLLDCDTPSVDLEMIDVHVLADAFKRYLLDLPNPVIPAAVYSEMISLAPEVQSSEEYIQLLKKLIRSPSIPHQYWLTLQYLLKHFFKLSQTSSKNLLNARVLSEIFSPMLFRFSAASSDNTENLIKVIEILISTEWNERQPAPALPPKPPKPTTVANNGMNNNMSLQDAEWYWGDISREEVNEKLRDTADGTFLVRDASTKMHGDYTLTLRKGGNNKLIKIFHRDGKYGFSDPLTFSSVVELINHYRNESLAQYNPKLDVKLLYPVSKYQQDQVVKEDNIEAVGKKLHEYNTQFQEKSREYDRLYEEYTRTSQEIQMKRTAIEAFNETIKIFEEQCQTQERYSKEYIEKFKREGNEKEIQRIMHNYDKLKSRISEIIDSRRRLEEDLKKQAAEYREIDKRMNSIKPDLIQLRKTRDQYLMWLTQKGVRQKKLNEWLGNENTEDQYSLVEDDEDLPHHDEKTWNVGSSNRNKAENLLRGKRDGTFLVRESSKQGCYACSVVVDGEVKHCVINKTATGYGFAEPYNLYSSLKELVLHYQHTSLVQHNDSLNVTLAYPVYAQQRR

For orientation: IC50 means the concentration needed to halve the response being measured. Read a low IC50 as inhibition by little substance. On to `CCn1cc(-c2nc3c(N4CCC(n5c(=O)[nH]c6ncccc65)CC4)ncnc3n2C)cn1` [Compound 322, 1-{1-[8-(1-ethyl-1H-pyrazol-4-yl)-9-methyl-9H-purin-6-yl]piperidin-4-yl}-1,3-dihydro-2H-imidazo[4,5-b]pyridin-2-one], for which the IC50 was less than 50 nM.
Regarding `CCn1c(-c2cnn(C)c2)nc2c(N3CCC(n4c(=O)[nH]c5ncccc54)CC3)ncnc21` [Compound 323, 1-{1-[9-ethyl-8-(1-methyl-1H-pyrazol-4-yl)-9H-purin-6-yl]piperidin-4-yl}-1,3-dihydro-2H-imidazo[4,5-b]pyridin-2-one], the IC50 was less than 50 nM.
Under `CCn1c(-c2ccc(C(F)(F)F)nc2)nc2c(N3CCC4(CC3)C(=O)Nc3ccccc34)ncnc21` [Compound 324, 1′-{9-ethyl-8-[6-(trifluoromethyl)pyridin-3-yl]-9H-purin-6-yl}spiro[indole-3,4′-piperidin]-2(1H)-one] stands less than 50 nM; under `CCn1cc(-c2nc3c(N4CCC(n5c(=O)[nH]c6ncccc65)CC4)ncnc3n2CC)cn1` [Compound 325, 1-{1-[9-ethyl-8-(1-ethyl-1H-pyrazol-4-yl)-9H-purin-6-yl]piperidin-4-yl}-1,3-dihydro-2H-imidazo[4,5-b]pyridin-2-one], less than 50 nM.
Under `CCn1c(-c2ccc(C(F)(F)F)nc2)nc2c(N3CCC(n4c(=O)[nH]c5ncccc54)CC3)ncnc21` [Compound 326, 1-(1-{9-ethyl-8-[6-(trifluoromethyl)pyridin-3-yl]-9H-purin-6-yl}piperidin-4-yl)-1,3-dihydro-2H-imidazo[4,5-b]pyridin-2-one] stands less than 50 nM; under `Cn1c(-c2ccc(C(F)(F)F)nc2)nc2c(N3CCC4(CC3)C(=O)Nc3ccccc34)ncnc21` [Compound 327, 1′-{9-methyl-8-[6-(trifluoromethyl)pyridin-3-yl]-9H-purin-6-yl}spiro[indole-3,4′-piperidin]-2(1H)-one], less than 50 nM; under `CCn1c(C(=O)N[C@H]2CC[C@H](O)CC2)nc2c(N3CCC(n4c(=O)[nH]c5ncccc54)CC3)ncnc21` [Compound 328, 9-ethyl-N-(trans-4-hydroxycyclohexyl)-6-[4-(2-oxo-2,3-dihydro-1H-imidazo[4,5-b]pyridin-1-yl)piperidin-1-yl]-9H-purine-8-carboxamide], less than 50 nM.
For the compound `Cn1c(C(=O)N[C@H]2CC[C@H](O)CC2)nc2c(N3CCC(n4c(=O)[nH]c5ncccc54)CC3)ncnc21` [Compound 329, N-(trans-4-hydroxycyclohexyl)-9-methyl-6-[4-(2-oxo-2,3-dihydro-1H-imidazo[4,5-b]pyridin-1-yl)piperidin-1-yl]-9H-purine-8-carboxamide], the IC50 is less than 50 nM.
In the case of `Cc1c(-c2nc3c(N4CCC(n5c(=O)[nH]c6ncccc65)CC4)ncnc3n2C)cnn1C` [Compound 331, 1-{1-[8-(1,5-dimethyl-1H-pyrazol-4-yl)-9-methyl-9H-purin-6-yl]piperidin-4-yl}-1,3-dihydro-2H-imidazo[4,5-b]pyridin-2-one] it was less than 50 nM.
Under `Cc1nnc(-c2nc3c(N4CCC(n5c(=O)[nH]c6ccccc65)CC4)ncnc3n2C)n1C` [Compound 332, 1-{1-[8-(4,5-dimethyl-4H-1,2,4-triazol-3-yl)-9-methyl-9H-purin-6-yl]piperidin-4-yl}-1,3-dihydro-2H-benzimidazol-2-one] stands 50 to 250 nM.
Under `Cc1ncc(-c2nc3c(N4CCC(n5c(=O)[nH]c6ccccc65)CC4)ncnc3n2C)n1C` [Compound 333, 1-{1-[8-(1,2-dimethyl-1H-imidazol-5-yl)-9-methyl-9H-purin-6-yl]piperidin-4-yl)-1,3-dihydro-2H-benzimidazol-2-one] stands less than 50 nM; under `COC(=O)[C@@H]1CN(c2ncnc3c2nc(-c2cnn(C)c2)n3C)CC[C@H]1n1c(=O)[nH]c2ccccc21` [Compound 334, methyl (3R,4R)-1-[9-methyl-8-(1-methyl-1H-pyrazol-4-yl)-9H-purin-6-yl]-4-(2-oxo-2,3-dihydro-1H-benzimidazol-1-yl)piperidine-3-carboxylate], less than 50 nM; under `Cn1c(-c2cccnn2)nc2c(N3CCC(n4c(=O)[nH]c5ncccc54)CC3)ncnc21` [Compound 335, 1-[1-(9-methyl-8-pyridazin-3-yl-9H-purin-6-yl)piperidin-4-yl]-1,3-dihydro-2H-imidazo[4,5-b]pyridin-2-one], 50 to 250 nM.
`Cc1ncc(-c2nc3c(N4CCC(n5c(=O)[nH]c6ncccc65)CC4)ncnc3n2C)n1C` [Compound 336, 1-{1-[8-(1,2-dimethyl-1H-imidazol-5-yl)-9-methyl-9H-purin-6-yl]piperidin-4-yl)-1,3-dihydro-2H-imidazo[4,5-b]pyridin-2-one] had an IC50 of less than 50 nM.
In turn, `CCn1ncc(-c2nc3c(N4CCC(n5c(=O)[nH]c6ncccc65)CC4)ncnc3n2C)c1C` [Compound 337, 1-{1-[8-(1-ethyl-5-methyl-1H-pyrazol-4-yl)-9-methyl-9H-purin-6-yl]piperidin-4-yl}-1,3-dihydro-2H-imidazo[4,5-b]pyridin-2-one] showed an IC50 of less than 50 nM.
Under `Cn1cc(-c2nc3c(N4CC[C@@H](n5c(=O)[nH]c6ccccc65)[C@H](CO)C4)ncnc3n2C)cn1` [Compound 338, 1-{(3R,4R)-3-(hydroxymethyl)-1-[9-methyl-8-(1-methyl-1H-pyrazol-4-yl)-9H-purin-6-yl]piperidin-4-yl}-1,3-dihydro-2H-benzimidazol-2-one] stands 50 to 250 nM.
In turn, `Cn1c(CNC(=O)OC(C)(C)C)nc2c(N3CCC(n4c(=O)[nH]c5ccccc54)CC3)ncnc21` [Compound 339, 1,1-dimethylethyl ({9-methyl-6-[4-(2-oxo-2,3-dihydro-1H-benzimidazol-1-yl)piperidin-1-yl]-9H-purin-8-yl}methyl)carbamate] showed an IC50 of 500 to 1500 nM.
In the case of `Cc1ncc(-c2nc3c(N4CCC(n5c(=O)[nH]c6ccccc65)CC4)ncnc3n2C)cn1` [Compound 340, 1-{1-[9-methyl-8-(2-methylpyrimidin-5-yl)-9H-purin-6-yl]piperidin-4-yl}-1,3-dihydro-2H-benzimidazol-2-one] it was less than 50 nM.
In the case of `Cn1cc(-c2nc3c(N4CCC(n5c(=O)[nH]c6cnccc65)CC4)ncnc3n2C)cn1` [Compound 341, 1-{1-[9-methyl-8-(1-methyl-1H-pyrazol-4-yl)-9H-purin-6-yl]piperidin-4-yl}-1,3-dihydro-2H-imidazo[4,5-c]pyridin-2-one] it was 250 to 500 nM.
Under `CCn1c(-c2cnc(C)nc2)nc2c(N3CCC(n4c(=O)[nH]c5ccccc54)CC3)ncnc21` [Compound 342, 1-{1-[9-ethyl-8-(2-methylpyrimidin-5-yl)-9H-purin-6-yl]piperidin-4-yl}-1,3-dihydro-2H-benzimidazol-2-one] stands less than 50 nM.
As to `Cn1c(-c2ccc(N)nc2)nc2c(N3CCC(n4c(=O)[nH]c5ncccc54)CC3)ncnc21` [Compound 343, 1-{1-[8-(6-aminopyridin-3-yl)-9-methyl-9H-purin-6-yl]piperidin-4-yl}-1,3-dihydro-2H-imidazo[4,5-b]pyridin-2-one], the 50% inhibitory concentration (IC50) is less than 50 nM.
On to `CCn1cc(-c2nc3c(N4CCC(n5c(=O)[nH]c6c(F)cccc65)CC4)ncnc3n2C)cn1` [Compound 344, 1-{1-[8-(1-ethyl-1H-pyrazol-4-yl)-9-methyl-9H-purin-6-yl]piperidin-4-yl}-4-fluoro-1,3-dihydro-2H-benzimidazol-2-one], for which the half-inhibitory concentration (IC50) was less than 50 nM.
In the case of `CCn1ncc(-c2nc3c(N4CCC(n5c(=O)[nH]c6c(F)cccc65)CC4)ncnc3n2C)c1C` [Compound 345, 1-{1-[8-(1-ethyl-5-methyl-1H-pyrazol-4-yl)-9-methyl-9H-purin-6-yl]piperidin-4-yl}-4-fluoro-1,3-dihydro-2H-benzimidazol-2-one] it was less than 50 nM.
Under `Cn1cc(-c2nc3c(N4CC[C@H](c5ccccc5)[C@@H](O)C4)ncnc3n2C)cn1` [Compound 346, (3R,4R)-1-[9-methyl-8-(1-methyl-1H-pyrazol-4-yl)-9H-purin-6-yl]-4-phenylpiperidin-3-ol] stands 250 to 500 nM.
In the case of `Cn1cc(-c2nc3c(N4CC[C@@H](n5c(=O)[nH]c6ccccc65)[C@H](C(=O)O)C4)ncnc3n2C)cn1` [Compound 347, (3R,4R)-1-[9-methyl-8-(1-methyl-1H-pyrazol-4-yl)-9H-purin-6-yl]-4-(2-oxo-2,3-dihydro-1H-benzimidazol-1-yl)piperidine-3-carboxylic acid] it was 500 to 1500 nM.
In turn, `Cn1cc(-c2nc3c(N4CCN(C5=NS(=O)(=O)c6ccccc65)CC4)ncnc3n2C)cn1` [Compound 348, 6-[4-(1,1-dioxido-1,2-benzisothiazol-3-yl)piperazin-1-yl]-9-methyl-8-(1-methyl-1H-pyrazol-4-yl)-9H-purine] returned an IC50 of 50 to 250 nM.
In the case of `CCn1cc(-c2nc3c(N4CCN(C5=NS(=O)(=O)c6ccccc65)CC4)ncnc3n2C)cn1` [Compound 349, 6-[4-(1,1-dioxido-1,2-benzisothiazol-3-yl)piperazin-1-yl]-8-(1-ethyl-1H-pyrazol-4-yl)-9-methyl-9H-purine] it was 50 to 250 nM; in that of `Cn1cc(-c2nc3c(N4CCN(c5ccccc5S(C)(=O)=O)CC4)ncnc3n2C)cn1` [Compound 350, 9-methyl-8-(1-methyl-1H-pyrazol-4-yl)-6-{4-[2-(methylsulfonyl)phenyl]piper-azin-1-yl}-9H-purine], 500 to 1500 nM.
In the case of `Cn1cc(-c2nc3c(N4CCC(c5c[nH]c6ccccc56)CC4)ncnc3n2C)cn1` [Compound 351, 6-[4-(1H-indol-3-yl)piperidin-1-yl]-9-methyl-8-(1-methyl-1H-pyrazol-4-yl)-9H-purine] it was 250 to 500 nM; in that of `CNc1ccc(-c2nc3c(N4CCC(n5c(=O)[nH]c6ccccc65)CC4)ncnc3n2C)cn1` [Compound 353, 1-(1-{9-methyl-8-[6-(methylamino)pyridin-3-yl]-9H-purin-6-yl}piperidin-4-yl)-1,3-dihydro-2H-benzimidazol-2-one], less than 50 nM; in that of `CNc1ccc(-c2nc3c(N4CCC(n5c(=O)[nH]c6ncccc65)CC4)ncnc3n2C)cn1` [Compound 354, 1-(1-{9-methyl-8-[6-(methylamino)pyridin-3-yl]-9H-purin-6-yl}piperidin-4-yl)-1,3-dihydro-2H-imidazo[4,5-b]pyridin-2-one], less than 50 nM.

Source of the values: patent US20140058103A1, “Inhibitors of PI3K-Delta and Methods of Their Use and Manufacture” (Exelixis, Inc., priority 2010, published 2014).
